Like-named read-outs stand apart in the source and are kept apart here. Where only a bound is given, the exact number is not on record here.

For one assay, the target named is pfDHODH (Plasmodium falciparum (isolate 3D7), UniProt Q08210). Briefly: DHODH chromogen reduction (DCIP) assay, pfDHODH. Format: biochemical, P. falciparum. The text has this: (§1) Type 2 DHODH activity was monitored with either the direct assay measuring the formation of orotate or via a chromogen reduction assay using DCIP. Although the extinction coefficient and absorption wavelength are preferable for the chromogen reduction assay, the inorganic electron acceptor DCIP can be utilized by DHODH as the final electron acceptor in lieu of CoQn when the endogenous substrate is at a low concentration. As such, the direct assay was used to measure the binding affinity of pfDHODH to CoQD and L-DHO. The enzymatic reaction was performed by varying the L-DHO concentration (1-400 μM) or CoQD concentration (1-200 μM) while keeping the other substrate constant and in excess.
pfDHODH, sequence (Q08210 159-565 limits assumed): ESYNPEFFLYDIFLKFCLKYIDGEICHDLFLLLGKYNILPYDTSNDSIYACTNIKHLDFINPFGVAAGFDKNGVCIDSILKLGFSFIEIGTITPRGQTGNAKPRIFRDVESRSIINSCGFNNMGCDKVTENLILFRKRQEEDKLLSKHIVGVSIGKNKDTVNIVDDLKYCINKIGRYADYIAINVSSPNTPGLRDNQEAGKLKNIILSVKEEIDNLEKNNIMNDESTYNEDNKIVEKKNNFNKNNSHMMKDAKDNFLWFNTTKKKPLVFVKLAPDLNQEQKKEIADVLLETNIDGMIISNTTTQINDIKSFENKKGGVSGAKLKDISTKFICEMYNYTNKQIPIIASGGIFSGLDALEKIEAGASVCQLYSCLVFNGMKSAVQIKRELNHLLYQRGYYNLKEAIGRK
(§2) Substrate specificity and enzyme inhibition data was analyzed with GraphPad Prism Version 4 for Windows (GraphPad Software). Kinetic constants were calculated by non-linear regression fitting of the data to the Michaelis-Menten equation [36]. IC50 values were determined by non-linear regression fitting of the data to Equation 1: […]

The next assay has as its system P. falciparum Dd2. Briefly: Inhibition of in vitro P. falciparum culture, [3H]-hypoxanthine uptake, Dd2. Format: cell-based. The protocol: (§3) P. falciparum strains D10, 3D7, HB3, and Dd2 were obtained from the Malaria Research and Reference Reagent Resource Center (Manassas, Va.). The parasite strains were maintained in vitro by method of Trager and Jensen. The inhibition of P. falciparum growth in the presence of drug was assessed by the relative reduction of [^3H]-hypoxanthine uptake as previously described. Inhibition data were fitted to Equation 1 using non-linear regression analysis except that the relative velocity of parasite growth was substituted for the rate of product formation.

In a further assay the test system is P. falciparum 3D7. Briefly: Inhibition of in vitro P. falciparum culture, [3H]-hypoxanthine uptake, 3D7. It counts as cell-based. The protocol:
as §3

The next assay addresses hsDHODH (Homo sapiens (Human), UniProt Q02127). Kind of assay: DCIP assay, hsDHODH. The note with it: Table 2b; read-out: Hu (human DHODH) IC50. It counts as biochemical.
From the text: as §1, with “excess. The formation of orotate was measured continuously at 296 nm (ε296=4.3 mM^−1 cm^−1). Inhibition of DHODH by small molecules was evaluated using the chromogen based assay with a final substrate concentration of 200 μM L-DHO, 18 μM CoQD, and 100 μM DCIP, unless otherwise noted. The reduction of DCIP was monitored at 600 nm (ε600=18.8 mM^−1 cm^−1).” for “excess.”
as §2

[1] abbreviates: Table 2b, read-out: pfDHODH IC50.
[2] abbreviates: Plasmodium falciparum, DD2, Table 2b, read-out: Dd2 EC50.
Where [3] appears, read: Plasmodium falciparum, 3D7, Table 2b, read-out: 3D7 EC50.

hsDHODH, sequence (Q02127 29-395 limits assumed): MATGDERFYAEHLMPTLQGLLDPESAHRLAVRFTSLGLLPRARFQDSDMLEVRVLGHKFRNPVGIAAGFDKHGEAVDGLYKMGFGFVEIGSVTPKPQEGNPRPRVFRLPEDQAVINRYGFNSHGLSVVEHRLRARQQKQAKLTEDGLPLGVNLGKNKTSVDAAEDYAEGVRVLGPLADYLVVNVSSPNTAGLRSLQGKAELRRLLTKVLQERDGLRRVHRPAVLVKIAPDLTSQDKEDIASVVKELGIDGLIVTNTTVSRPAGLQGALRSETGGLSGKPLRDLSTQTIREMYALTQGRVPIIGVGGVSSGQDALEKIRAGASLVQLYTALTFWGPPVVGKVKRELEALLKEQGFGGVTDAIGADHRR

For `CCCNC(=O)c1ccc(-n2c(C)nc3cc(Cl)ccc32)s1` [Compound 51], the IC50 on pfDHODH (setting [1]) was 239 nM; at hsDHODH, above 30000 nM. The EC50 was found to be 314 nM in the assay with P. falciparum Dd2 (setting [2]) and 158 nM with P. falciparum 3D7 (setting [3]).
Turning to `CCCNC(=O)c1ccc(-n2cnc3cc(Cl)ccc32)s1` [Compound 56], the IC50 is 324 nM on pfDHODH (setting [1]) and above 30000 nM at hsDHODH. In addition, the EC50 with P. falciparum 3D7 (setting [3]) stood at 203 nM.
On to `CCCc1nc2ccccc2n1-c1ccc(C(=O)NC2CC2)s1` [Compound 67], for which the values for the IC50 on pfDHODH (setting [1]) and on hsDHODH were 180 nM and 25600 nM, respectively. The EC50 in the assay on P. falciparum Dd2 (setting [2]) turned out to be 629 nM; in the assay on P. falciparum 3D7 (setting [3]), 389 nM.
For `O=C(NC1CCCC1)c1ccc(-n2cnc3ccccc32)s1` [Compound 35], the IC50 at pfDHODH (setting [1]) is 2510 nM; at hsDHODH, above 30000 nM. In addition, the figures for the EC50 with P. falciparum Dd2 (setting [2]) and in the assay with P. falciparum 3D7 (setting [3]) were 5500 nM and 4400 nM, respectively.
On the same counts, the results for `CCNC(=O)c1ccc(-n2c(CC)nc3ccccc32)s1` [Compound 63] are 137 nM, above 30000 nM, 146 nM and 141 nM.
As to `Cc1nc2cc(OC(F)(F)F)ccc2n1-c1ccc(C(=O)NC2CC2)s1` [Compound 57], the IC50 is 64 nM on pfDHODH (setting [1]) and above 30000 nM at hsDHODH. Further, the EC50 in the assay with P. falciparum Dd2 (setting [2]) was determined as 60 nM; with P. falciparum 3D7 (setting [3]), 33 nM.
With `O=C(NC1CCC1)c1ccc(-n2cnc3ccccc32)s1` [Compound 38], the IC50 on pfDHODH (setting [1]) is 418 nM; on hsDHODH, above 30000 nM. Further, the EC50 is 442 nM in the assay on P. falciparum Dd2 (setting [2]) and 408 nM with P. falciparum 3D7 (setting [3]).
For `COc1ccc2c(c1)nc(C)n2-c1ccc(C(=O)NC2CC2)s1` [Compound 39] the same measures were 212 nM, 24600 nM, 247 nM and 180 nM.
As for `Cc1nc2cc(F)ccc2n1-c1ccc(C(=O)NC2CC2)s1` [Compound 42], the IC50 was 88 nM at pfDHODH (setting [1]) and above 30000 nM on hsDHODH. In addition, the EC50 in the assay on P. falciparum Dd2 (Table 2b, read-out: Dd2 EC50) worked out at 150 nM; in the assay with P. falciparum 3D7 (Table 2b, read-out: 3D7 EC50), 104 nM.
Regarding `CCNC(=O)c1ccc(-n2cnc3cc(C)ccc32)s1` [Compound 61], the IC50 is 75 nM at pfDHODH (setting [1]) and 21200 nM on hsDHODH. The EC50 in the assay on P. falciparum Dd2 (setting [2]) was found to be 39 nM; in the assay with P. falciparum 3D7 (setting [3]), 27 nM.
Turning to `CCCCC(=O)c1ccc(-n2cnc3ccccc32)s1` [Compound 84, 1-[5-(1H-benzimidazol-1-yl)-2-thienyl]pentan-1-one], the IC50 at pfDHODH (setting [1]) and on hsDHODH was above 30000 nM each time. Also, the EC50 was 20000 nM with P. falciparum Dd2 (setting [2]) and above 40000 nM in the assay with P. falciparum 3D7 (setting [3]).
Turning to `CCCNC(=O)c1ccc(-n2c(C)nc3cc(F)ccc32)s1` [Compound 50], the IC50 is 499 nM at pfDHODH (setting [1]) and above 30000 nM on hsDHODH. The figures for the EC50 in the assay with P. falciparum Dd2 (setting [2]) and in the assay on P. falciparum 3D7 (setting [3]) were 538 nM and 255 nM, respectively.
On the same counts, the results for `CCNC(=O)c1ccc(-n2cnc3ccccc32)s1` [Compound 25] are 145 nM, above 30000 nM, 154 nM and 102 nM.
For the molecule `CCNC(=O)c1ccc(-n2cc(-c3ccccc3)nc2C)s1` [Compound 75], the IC50 on pfDHODH (setting [1]) is 416 nM; on hsDHODH it was above 30000 nM. The values for the EC50 in the assay with P. falciparum Dd2 (setting [2]) and with P. falciparum 3D7 (setting [3]) were 283 nM and 278 nM, respectively.
Regarding `Cc1nc2cc(Cl)ccc2n1-c1ccc(C(=O)NC2CC2)s1` [Compound 40], the IC50 against pfDHODH (pfDHODH IC50, Table 2b) is 58 nM; at hsDHODH, above 30000 nM. In addition, the EC50 is 120 nM with P. falciparum Dd2 (Plasmodium falciparum, DD2, read-out: Dd2 EC50, Table 2b) and 88 nM in the assay with P. falciparum 3D7 (Plasmodium falciparum, 3D7, read-out: 3D7 EC50, Table 2b).
Take `CCNC(=O)c1ccc(-n2c(C)nc3ccccc32)s1` [Compound 33]: the values for the IC50 on pfDHODH (setting [1]) and at hsDHODH were 191 nM and above 30000 nM, respectively. The EC50 with P. falciparum Dd2 (Table 2b, read-out: Dd2 EC50) came to 223 nM; with P. falciparum 3D7 (Table 2b, read-out: 3D7 EC50), 113 nM.
Regarding `CCCc1nc2ccccc2n1-c1ccc(C(=O)NCC)s1` [Compound 59], the IC50 was 334 nM at pfDHODH (setting [1]) and 19400 nM on hsDHODH. Also, the EC50 turned out to be 467 nM in the assay on P. falciparum Dd2 (setting [2]) and 382 nM in the assay with P. falciparum 3D7 (setting [3]).
For `Cc1nc2cc(F)ccc2n1-c1ccc(C(=O)NC2CC2)s1` [Compound 43], the IC50 at pfDHODH (setting [1]) worked out at 104 nM; on hsDHODH it was 20300 nM. Besides, the EC50 in the assay on P. falciparum Dd2 (Table 2b, read-out: Dd2 EC50) worked out at 36 nM; with P. falciparum 3D7 (Table 2b, read-out: 3D7 EC50), 39 nM.
In the case of `Cc1nc2cc3c(cc2n1-c1ccc(C(=O)NC2CC2)s1)OCO3` [Compound 90], the values for the IC50 at pfDHODH (setting [1]) and at hsDHODH were 116 nM and above 30000 nM, respectively. Besides, the figures for the EC50 with P. falciparum Dd2 (setting [2]) and in the assay on P. falciparum 3D7 (setting [3]) were 174 nM and 220 nM, respectively.
Turning to `Cc1nc2cc(C(F)(F)F)ccc2n1-c1ccc(C(=O)NC2CC2)s1` [Compound 64], the IC50 came to 41 nM at pfDHODH (setting [1]) and 28000 nM at hsDHODH. Also, the EC50 in the assay with P. falciparum Dd2 (setting [2]) was found to be 12 nM; in the assay on P. falciparum 3D7 (setting [3]), 8 nM.
As to `O=C(NCCO)c1ccc(-n2cnc3ccccc32)s1` [Compound 30], the IC50 is 14000 nM on pfDHODH (setting [1]) and above 30000 nM on hsDHODH. Besides, the EC50 in the assay with P. falciparum Dd2 (setting [2]) turned out to be 6500 nM; in the assay on P. falciparum 3D7 (setting [3]), 5900 nM.
Regarding `CCc1nc2cc(F)ccc2n1-c1ccc(C(=O)NC2CC2)s1` [Compound 66], the IC50 on pfDHODH (setting [1]) was 67 nM; at hsDHODH it was above 30000 nM. Also, the EC50 in the assay with P. falciparum Dd2 (setting [2]) is 253 nM; in the assay with P. falciparum 3D7 (setting [3]) it was 136 nM.
Take `Cc1ccc2c(c1)ncn2-c1ccc(C(=O)NC2CC2)s1` [Compound 60]: the IC50 turned out to be 38 nM on pfDHODH (setting [1]) and 24600 nM on hsDHODH. For the same molecule, the results for the EC50 in the assay on P. falciparum Dd2 (setting [2]) and in the assay with P. falciparum 3D7 (setting [3]) were 21 nM and 20 nM, respectively.
For `O=C(NC1CC1)c1ccc(-n2cnc3cc(F)ccc32)s1` [Compound 70], the figures for the IC50 at pfDHODH (setting [1]) and on hsDHODH were 58 nM and above 30000 nM, respectively. Also, the EC50 was found to be 105 nM in the assay on P. falciparum Dd2 (setting [2]) and 62 nM in the assay with P. falciparum 3D7 (setting [3]).
On the same counts, the results for `CNC(=O)c1ccc(-n2cnc3ccccc32)s1` [Compound 24] are 1080 nM, above 30000 nM, 422 nM and 276 nM.
For `CCNC(=O)c1ccc(-n2c(C)nc3cc(Cl)ccc32)s1` [Compound 52], the IC50 was 94 nM at pfDHODH (setting [1]) and above 30000 nM on hsDHODH. The EC50 with P. falciparum Dd2 (setting [2]) was found to be 104 nM; in the assay on P. falciparum 3D7 (setting [3]), 53 nM.
For `O=C(NC1CC1)c1ccc(-n2cnc3ccccc32)s1` [Compound 23] the same measures were 56 nM, above 30000 nM, 88 nM and 79 nM.
As for `Cc1ccc2c(c1)nc(C)n2-c1ccc(C(=O)NC2CC2)s1` [Compound 44], the concentration for half-maximal inhibition (IC50) was 56 nM on pfDHODH (setting [1]) and above 30000 nM at hsDHODH. Moreover, the EC50 with P. falciparum Dd2 (setting [2]) worked out at 48 nM; in the assay with P. falciparum 3D7 (setting [3]), 34 nM.
On to `CCc1nc2ccccc2n1-c1ccc(C(=O)NC2CC2)s1` [Compound 49], for which the IC50 on pfDHODH (setting [1]) is 113 nM; at hsDHODH it was above 30000 nM. The EC50 worked out at 185 nM in the assay on P. falciparum Dd2 (setting [2]) and 125 nM with P. falciparum 3D7 (setting [3]).
As to `CCCNC(=O)c1ccc(N2Cc3cccc(OC)c3Oc3ncccc32)s1` [Compound 22, 5-(10-methoxybenzo[f]pyrido[2,3-b][1,4]oxazepin-5(6H)-yl)-N-propylthiophene-2-carboxamide], at pfDHODH (setting [1]), the IC50 was above 30000 nM. The EC50 in the assay on P. falciparum Dd2 (setting [2]) and with P. falciparum 3D7 (setting [3]) was above 10000 nM in each case.
Regarding `Cc1nc2ccccc2n1-c1cc(C(=O)NC2CC2)cs1` [Compound 78, N-cyclopropyl-5-(2-methyl-1H-benzo[d]imidazol-1-yl)thiophene-3-carboxamide], at pfDHODH (setting [1]), the IC50 was determined as 1700 nM. Moreover, the results for the EC50 in the assay with P. falciparum Dd2 (setting [2]) and with P. falciparum 3D7 (setting [3]) were 2050 nM and 1020 nM, respectively.
As to `CCCC/C(=N\OC)c1ccc(-n2cnc3ccccc32)s1` [Compound 89, 1-[5-(1H-benzimidazol-1-yl)-2-thienyl]pentan-1-one O-methyloxime], the IC50 at pfDHODH (setting [1]) was above 30000 nM. For the same molecule, the EC50 with P. falciparum Dd2 (setting [2]) was determined as 4400 nM; with P. falciparum 3D7 (setting [3]) it was 5300 nM.
For `CCCNC(=O)c1ccc(N2CCSc3ncccc32)s1` [Compound 21, 5-(2,3-dihydro-1H-pyrido[2,3-b][1,4]thiazin-1-yl)-N-propylthiophene-2-carboxamide] the same measures were 13800 nM, above 10000 nM and above 10000 nM.

The record behind these values is patent publication US8703811B2, “Small molecule inhibitors of Plasmodium falciparum dihydroorotate dehydrogenase” (Genzyme Corporation, priority 2008, dated 2014).
